Data from patent US5225566A, “Indazolanonyl derivative of benzopyran” (American Home Products Corporation, priority 1992, dated 1993).

How the values were obtained:
[1] = test system: isolated rat bladder strips; experiment: Inhibition of contractions in isolated rat bladder strips; parameters: species or system rat (Sprague-Dawley); settings: for IC50: 0.5 h, additional 15 mM KCl, 30 min challenge
Description: In addition, smooth muscle relaxing activity of the compounds of this invention was established in accordance with standard pharmaceutically accepted test procedures in representative compounds as follows:
Sprague-Dawley rats (150-200 g) are rendered unconscious by CO2 asphyxiation and then euthanized by cervical dislocation. The bladder is removed into warm (37 deg.C.) physiological salt solution (PSS) of the following composition (mM): NaCl, 118.4; KCl, 4.7; CaCl2, 2.5; […]; NaHCO3, 24.9; KH2 PO4, 1.2; glucose, 11.1; EDTA, 0.023; gassed with […]; pH 7.4. The bladder is opened and then cut into strips 1-2 mm in width and 7-10 mm in length. The strips are subsequently suspended in a 10 ml tissue bath under an initial resting tension of 1.5 g. The strips are held in place by two surgical clips one of which is attached to fixed hook while the other is attached to an isometric force transducer. […] The carbachol is then washed out and the tissue allowed to relax to its resting level of activity. Following 1 further 30 min period of recovery an additional 15 mM KCl are introduced into the tissue bath. This increase in KCl concentration results in a large increase in the amplitude of spontaneous contractions (and initiation of contractions in previously quiescent strips) superimposed upon a small increase in basal tone. Following stabilization of this enhanced level of contractile activity, incremental increases in the concentration of test compound or vehicle are introduced into the tissue bath. Contractile activity is measured for each compound or vehicle concentration during the last min of a 30 min challenge.
Isometric force developed by the bladder strips is measured using a […] to elicit 50% inhibition of pre-drug contractile activity (IC50 concentration) is calculated from this concentration-response curve. The maximum percentage inhibition of contractile activity evoked by a test compound is also recorded for concentrations of test compound<or equal to 30 uM.

[2] = test system: spontaneously hypertensive rats (SHR); experiment: Blood pressure lowering and heart rate in conscious spontaneously hypertensive rats, oral; format: in vivo, rat (male Okamoto-Aoki SHR)
Description: The blood pressure lowering activity of the compounds of this invention was established in accordance with standard pharmaceutically accepted test procedures in representative compounds as follows:
Male Okamoto-Aoki spontaneously hypertensive rats (SHR) ranging in weight from 250-400 g were anesthetized with halothane. Their left femoral arteries and veins were cannulated with polyethylene tubing of the appropriate size (i.d. 0.023", o.d. 0.038"). Each animal was placed in a Bollman cage, and the tail, along with two cannulas, was extended through a hole in one end of the cage. The tail was taped securely to a firm rubber board to prevent the rat from turning in its cage to dislodge the cannulas. The femoral arterial cannula was connected to a Statham pressure transducer which in turn was attached to a polygraph for recording arterial pressure and pulse rate. The pulse rate was considered to be the heart rate.
After the blood pressure has stabilized (usually 2 hours after cessation of the anesthesia), standard agonists were injected by the i.v. route. The doses administered were: isoproterenol 0.5 μg/kg, adrenaline 2.0 μg/kg, tyramine 200 μg/kg and angiotensin-I 0.25 μg/kg. The agonists were given in random order except that tyramine was never preceded by isoproterenol as the response to tyramine seemed to be blunted after a prior injection of isoproterenol. Enough time was allowed for the BP to return to preinjection levels before the test compound was administered by gastric lavage. The time of drug administration was designated as time zero. Heart rate and blood pressure were recorded at 5,10,15,30,45 and 60 minutes and hourly thereafter for a period of 4 hours after drug administration. At 1 and 2 hours post-drug the agonists were again injected at the same concentration and in the same order as during the control period.
For each dose, the maximum fall in blood pressure was given in mm Hg and also expressed as a percentage decrease compared to pretreatment control values. Linear regression on the maximum decrease in mean arterial blood pressure at each dose was used to calculate the ED30 (the dose which would lower mean arterial pressure by 30%). A decrease in mean arterial blood pressure of 30% reduces the blood pressure from the hypertensive to the normotensive range.

Cc1ccc2[nH]n([C@@H]3c4cc(OC(F)(F)F)ccc4OC(C)(C)[C@H]3O)c(=O)c2c1 [Example 8, (-)-2-[(3S,4R)-3-Hydroxy-2,2-dimethyl-6-trifluoromethoxy-chroman-4-yl]-5-methyl-1,2-dihydro-indazol-3-one]
IC50 [1]: 0.011 µM

CC1(C)Oc2ccc(OC(F)(F)F)cc2[C@H](n2[nH]c3ccccc3c2=O)[C@H]1O [Example 7, (+)-2-[(3R,4S)-3-Hydroxy-2,2-dimethyl-6-trifluoromethoxychroman-4-yl]-1,2-dihydro-indazol-3-one]
Max Δ BP (mean arterial blood pressure) ([2]; 0.1 mg/kg p.o., 5 m): -12 mm Hg
Max Δ BP, % ([2]; 0.1 mg/kg p.o., 5 m): -7 ± 1%
Max Δ HR (heart rate) ([2]; 0.1 mg/kg p.o., 5 m): +39 beats/min
Max Δ HR, % ([2]; 0.1 mg/kg p.o., 5 m): +10 ± 3%
Max Δ BP (mean arterial blood pressure) ([2]; 1.0 mg/kg p.o., 30 m): -96 mm Hg
Max Δ BP, % ([2]; 1.0 mg/kg p.o., 30 m): -51 ± 1%
Max Δ HR (heart rate) ([2]; 1.0 mg/kg p.o., 30 m): +114 beats/min
Max Δ HR, % ([2]; 1.0 mg/kg p.o., 30 m): +31 ± 7%
Δ BP (mean arterial blood pressure) ([2]; 1.0 mg/kg p.o., 4 h): -20 mm Hg
Δ BP, % ([2]; 1.0 mg/kg p.o., 4 h): -11 ± 2%
Δ HR (heart rate) ([2]; 1.0 mg/kg p.o., 4 h): +38 beats/min
Δ HR, % ([2]; 1.0 mg/kg p.o., 4 h): +10 ± 4%

CC1(C)Oc2ccc(OC(F)(F)F)cc2[C@@H](n2[nH]c3ccccc3c2=O)[C@@H]1O [Example 1, (-)-2-[(3S,4R)-3-Hydroxy-2,2-dimethyl-6-trifluoromethoxy-chroman-4-yl]-1,2-dihydro-indazol-3-one]
Max Δ BP (mean arterial blood pressure) ([2]; 0.1 mg/kg p.o., 15 m): -41 mm Hg
Max Δ BP, % ([2]; 0.1 mg/kg p.o., 15 m): -21 ± 3%
Max Δ HR (heart rate) ([2]; 0.1 mg/kg p.o., 15 m): +58 beats/min
Max Δ HR, % ([2]; 0.1 mg/kg p.o., 15 m): +16 ± 6%
Δ BP (mean arterial blood pressure) ([2]; 0.1 mg/kg p.o., 2 h): -13 mm Hg
Δ BP, % ([2]; 0.1 mg/kg p.o., 2 h): -7 ± 2%
Δ HR (heart rate) ([2]; 0.1 mg/kg p.o., 2 h): -29 beats/min
Δ HR, % ([2]; 0.1 mg/kg p.o., 2 h): -7 ± 3%
Max Δ BP (mean arterial blood pressure) ([2]; 0.3 mg/kg p.o., 30 m): -102 mm Hg
Max Δ BP, % ([2]; 0.3 mg/kg p.o., 30 m): -55 ± 2%
Max Δ HR (heart rate) ([2]; 0.3 mg/kg p.o., 30 m): +90 beats/min
Max Δ HR, % ([2]; 0.3 mg/kg p.o., 30 m): +25 ± 6%
Δ BP (mean arterial blood pressure) ([2]; 0.3 mg/kg p.o., 4 h): -22 mm Hg
Δ BP, % ([2]; 0.3 mg/kg p.o., 4 h): -12 ± 4%
Δ HR (heart rate) ([2]; 0.3 mg/kg p.o., 4 h): +36 beats/min
Δ HR, % ([2]; 0.3 mg/kg p.o., 4 h): +10 ± 4%
Max Δ BP (mean arterial blood pressure) ([2]; 1.0 mg/kg p.o., 45 m): -112 mm Hg
Max Δ BP, % ([2]; 1.0 mg/kg p.o., 45 m): -59 ± 4%
Max Δ HR (heart rate) ([2]; 1.0 mg/kg p.o., 45 m): +41 beats/min
Max Δ HR, % ([2]; 1.0 mg/kg p.o., 45 m): +11 ± 12%
Δ BP (mean arterial blood pressure) ([2]; 1.0 mg/kg p.o., 4 h): -92 mm Hg
Δ BP, % ([2]; 1.0 mg/kg p.o., 4 h): -47 ± 15%
Δ HR (heart rate) ([2]; 1.0 mg/kg p.o., 4 h): -31 beats/min
Δ HR, % ([2]; 1.0 mg/kg p.o., 4 h): -9 ± 13%
IC50 [1]: 0.044 µM
inhibition at 0.3 µM ([1]; at 0.3 μM, read-out: Inhibition of Force (%) at (x) μM): 100%

Cn1c2ccccc2c(=O)n1[C@@H]1c2cc(OC(F)(F)F)ccc2OC(C)(C)[C@H]1O [Example 2, (-)-2-[(3S,4R)-3-Hydroxy-2,2-dimethyl-6-trifluoromethoxy-chroman-4-yl]-1-methyl-1,2-dihydro-indazol-3-one]
Max Δ BP (mean arterial blood pressure) ([2]; 1.0 mg/kg p.o., 45 m): -22 mm Hg
Max Δ BP, % ([2]; 1.0 mg/kg p.o., 45 m): -13 ± 2%
Max Δ HR (heart rate) ([2]; 1.0 mg/kg p.o., 45 m): +17 beats/min
Max Δ HR, % ([2]; 1.0 mg/kg p.o., 45 m): +4 ± 1%
IC50 [1]: 9 µM
inhibition at 10 µM ([1]; at 10 μM, read-out: Inhibition of Force (%) at (x) μM): 58%
